ChEMBL document CHEMBL4382249, “1-Arylsulfonyl indoline-benzamides as a new antitubulin agents, with inhibition of histone deacetylase” (Eur J Med Chem, 2019)
Activity calls are given as the source filed them. The rule behind the calls is not given here.

Tests used:
A549 = assay: Growth inhibition of human A549 cells after 48 hrs by SRB assay; type: functional, cell-based; conditions: A549, 48 h
[1] = molecular target: T1, Protein deacetylase HDAC6 (Homo sapiens) (UniProt Q9UBN7); assay: Inhibition of human HDAC6 in human A549 cells assessed as increase in acetylated alpha-tubulin level at 0.6 to […] after 6 hrs by Western blot analysis; type: cell-based
T1 sequence (whole entry): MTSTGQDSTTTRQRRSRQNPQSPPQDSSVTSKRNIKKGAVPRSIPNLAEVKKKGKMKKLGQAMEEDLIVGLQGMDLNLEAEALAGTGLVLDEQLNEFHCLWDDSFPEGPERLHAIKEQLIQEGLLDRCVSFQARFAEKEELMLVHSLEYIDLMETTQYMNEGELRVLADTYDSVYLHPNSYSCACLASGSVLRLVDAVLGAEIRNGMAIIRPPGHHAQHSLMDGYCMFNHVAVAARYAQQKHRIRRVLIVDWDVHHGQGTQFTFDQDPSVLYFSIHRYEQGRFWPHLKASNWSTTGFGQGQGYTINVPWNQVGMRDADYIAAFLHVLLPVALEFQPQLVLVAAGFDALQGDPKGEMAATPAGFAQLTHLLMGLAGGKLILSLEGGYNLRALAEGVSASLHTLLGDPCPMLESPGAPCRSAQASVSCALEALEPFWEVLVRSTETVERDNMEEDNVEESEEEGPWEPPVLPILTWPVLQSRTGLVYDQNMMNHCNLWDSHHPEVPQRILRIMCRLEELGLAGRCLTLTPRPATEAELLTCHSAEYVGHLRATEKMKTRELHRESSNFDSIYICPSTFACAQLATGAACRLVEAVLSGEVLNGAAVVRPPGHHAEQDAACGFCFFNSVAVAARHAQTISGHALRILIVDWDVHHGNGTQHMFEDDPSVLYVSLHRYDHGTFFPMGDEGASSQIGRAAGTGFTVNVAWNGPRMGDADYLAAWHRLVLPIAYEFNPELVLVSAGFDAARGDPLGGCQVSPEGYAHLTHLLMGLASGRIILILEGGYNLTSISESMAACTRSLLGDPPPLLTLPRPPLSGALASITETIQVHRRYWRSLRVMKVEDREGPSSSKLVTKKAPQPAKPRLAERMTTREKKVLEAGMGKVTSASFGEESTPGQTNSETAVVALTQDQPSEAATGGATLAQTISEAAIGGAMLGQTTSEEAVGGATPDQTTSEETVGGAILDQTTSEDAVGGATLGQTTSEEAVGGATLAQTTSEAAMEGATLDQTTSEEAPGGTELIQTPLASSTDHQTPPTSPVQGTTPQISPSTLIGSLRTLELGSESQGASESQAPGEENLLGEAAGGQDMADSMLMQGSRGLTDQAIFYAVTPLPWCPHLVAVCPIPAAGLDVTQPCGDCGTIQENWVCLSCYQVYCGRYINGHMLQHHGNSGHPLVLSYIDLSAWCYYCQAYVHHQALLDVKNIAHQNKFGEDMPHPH

BJAB [2] = assay: Growth inhibition of human BJAB cells after 48 hrs by MTT assay
BJAB [3] = assay: Growth inhibition of human BJAB cells assessed as cell viability at 10 nM after 48 hrs by MTT assay (reference value: 100%)
[4] = molecular target: T2, Polyamine deacetylase HDAC10 (Homo sapiens, UniProt Q969S8); assay: Inhibition of human HDAC10 using RHKKAc as substrate by fluorescence assay; conditions: read-out: IC50
T2 sequence (Q969S8 whole entry): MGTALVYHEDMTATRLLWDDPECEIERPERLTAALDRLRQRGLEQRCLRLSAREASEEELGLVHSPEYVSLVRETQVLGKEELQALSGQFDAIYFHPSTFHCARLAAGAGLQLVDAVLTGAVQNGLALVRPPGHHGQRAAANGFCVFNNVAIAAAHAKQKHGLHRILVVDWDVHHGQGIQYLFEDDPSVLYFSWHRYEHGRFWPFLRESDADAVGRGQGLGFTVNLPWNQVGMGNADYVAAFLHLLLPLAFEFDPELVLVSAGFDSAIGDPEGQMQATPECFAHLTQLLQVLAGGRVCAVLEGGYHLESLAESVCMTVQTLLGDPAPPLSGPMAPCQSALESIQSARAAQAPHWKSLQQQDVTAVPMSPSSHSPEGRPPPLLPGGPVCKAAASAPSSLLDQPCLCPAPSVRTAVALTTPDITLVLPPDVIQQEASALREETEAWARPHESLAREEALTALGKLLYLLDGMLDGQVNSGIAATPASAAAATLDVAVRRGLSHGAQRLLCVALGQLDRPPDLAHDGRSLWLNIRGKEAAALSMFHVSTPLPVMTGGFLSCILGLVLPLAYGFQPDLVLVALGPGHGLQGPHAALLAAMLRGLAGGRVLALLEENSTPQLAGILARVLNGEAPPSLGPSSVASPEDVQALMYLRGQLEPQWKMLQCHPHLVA

Tubulin (Bos taurus) = Tubulin (Bos taurus) (UniProt Q6B856+Q862L2+Q862F3); conditions: at 1 µM

For `COc1ccc(S(=O)(=O)N2CCc3cccc(NCc4ccc(C(=O)Nc5ccccc5N)cc4)c32)cc1`, the IC50 (A549) was 79 nM, the inhibition [1] was “Active” and the IC50 (BJAB [2]) was 40 nM. The viability at 0.01 µM (BJAB [3]) was 69%, the IC50 [4] was 10000 nM and the inhibition (Tubulin (Bos taurus)) was 69.9%.
